Experiment [1] concerns the target T1, cloned human ORL1/nociceptin receptors (Homo sapiens, UniProt P41146).
T1 construct: expressed in transfected cells
The experiment is described as follows: Functional blockade of agonist-mediated G-protein activation, GTP-γ-[35S] binding. Type of experiment: biochemical. An excerpt:
Agonist-mediated stimulation of G-protein coupled receptors results in the activation of membrane associated Gαβγ-protein heterotrimer complexes, and represents the first step in the transduction of extracellular signals to modification of intracellular pathways. The first step in activation of receptor-mediated activation of Gαβγ-proteins heterotrimer is the exchange of Gα subunit bound guanosine diphoshpate (GDP) for guanosine triphosphate (GTP). The binding of GTP to the Gα subunit causes dissociation of the heterotrimer subunits, Gβ and Gγ, resulting in the modulation of several intracellular signaling cascades. Measurement of receptor-mediated G-protein activation can be measured using the non-hydrolyzable radiolabeled analog of GTP, GTP-γ-[35S]. Utilizing this methodology, antagonist affinity (Kb) is measured in membranes expressing cloned human ORL1/nociceptin receptors using a GTP-γ-[35S] binding assay according to previously described protocols with minor modifications (DeLapp et al., J Pharmacol Exp Ther. 1999 May; 289(2):946-55; Ozaki et al., Eur J Pharmacol. 2000 Aug. 18; 402(1-2):45-53). Assays are conducted in a 200-μl volume with the following buffer composition: 100 mM NaCl, 20 mM HEPES, 5 mM MgCl2, 1 mM EDTA, 0.1% BSA, 3 μM GDP, 0.5 nM [^35S]GTPγS. ORL1 receptor membrane suspension is added at a concentration of 20 μg protein per well and receptor stimulation is achieved using 300 nM nociceptin/OFQ. Wheat germ agglutinin coated SPA beads (Amersham, Arlington Hts., IL) are added at 1 mg per well to detect membrane-bound [^35S]GTPγS. Plates are sealed and incubated for 2 hr. at room temperature. Plates are then placed at 4° C. overnight to allow the SPA beads to settle and then counted in a Wallac Microbeta. Specific [^35S]GTPγS binding is determined as the difference in CPM observed in the absence and presence of 10 μM unlabeled GTPγS. Data are plotted as the percent of specific [^35S]GTPγS bound. Curves are plotted as the percent of specific binding and IC50 values are determined using a sigmoidal dose response curve with variable slope. […]
A general note: Binding of GTPγS marks nucleotide exchange on a G protein.

Experiment [2] addresses Ca+2 channel (diltiazem site). The experiment is described as follows: Radioligand binding selectivity, Ca+2 channel (diltiazem site). The text has this:
(§1) Similarly, Ki for the mu, kappa and delta opioids, serotonin, dopamine, adrenergic, mucarinic, and histamine receptors, as well as binding to the norepinephrine transporter, sodium channel, chloride channel, and calcium channel may be determined using membranes expressing the desired receptor/transporter/channels and appropriate corresponding radioligand competitor molecules.

Experiment [3] addresses Norepinephrine transporter (Homo sapiens, UniProt P23975). The experiment is described as follows: Radioligand binding selectivity, Norepinephrine transporter.
Excerpt: as §1

The target of a further experiment is Muscarinic M2 (Homo sapiens, UniProt P08172). The experiment is described as follows: Radioligand binding selectivity, Muscarinic M2.
Muscarinic M2, sequence (P08172 whole entry): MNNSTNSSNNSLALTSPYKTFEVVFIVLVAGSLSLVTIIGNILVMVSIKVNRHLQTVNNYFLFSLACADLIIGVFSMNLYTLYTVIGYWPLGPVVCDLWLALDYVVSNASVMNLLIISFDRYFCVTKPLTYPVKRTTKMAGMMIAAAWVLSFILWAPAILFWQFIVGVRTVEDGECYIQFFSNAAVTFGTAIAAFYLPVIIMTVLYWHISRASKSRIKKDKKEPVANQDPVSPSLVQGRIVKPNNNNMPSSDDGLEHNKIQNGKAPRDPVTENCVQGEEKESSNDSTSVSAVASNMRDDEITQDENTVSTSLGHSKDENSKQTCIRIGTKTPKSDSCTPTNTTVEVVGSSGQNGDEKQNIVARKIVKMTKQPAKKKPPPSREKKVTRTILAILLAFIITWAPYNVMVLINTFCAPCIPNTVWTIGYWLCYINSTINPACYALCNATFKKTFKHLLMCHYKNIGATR
Excerpt: as §1

The target in a further experiment is 5-HT2C (Homo sapiens, UniProt P28335). The experiment is described as follows: Radioligand binding selectivity, 5-HT2C.
5-HT2C, sequence (P28335 33-458, species assumed): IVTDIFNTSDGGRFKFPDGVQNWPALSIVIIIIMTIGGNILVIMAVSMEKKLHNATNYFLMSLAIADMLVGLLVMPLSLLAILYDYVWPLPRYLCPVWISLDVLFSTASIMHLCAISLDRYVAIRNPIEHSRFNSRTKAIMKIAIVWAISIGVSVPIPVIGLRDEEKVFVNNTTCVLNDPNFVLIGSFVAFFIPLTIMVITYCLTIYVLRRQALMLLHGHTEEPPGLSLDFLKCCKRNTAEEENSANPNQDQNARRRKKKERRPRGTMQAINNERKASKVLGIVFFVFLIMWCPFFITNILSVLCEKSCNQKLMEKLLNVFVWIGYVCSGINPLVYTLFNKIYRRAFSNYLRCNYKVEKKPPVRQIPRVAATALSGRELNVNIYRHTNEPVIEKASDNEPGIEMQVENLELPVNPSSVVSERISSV
Excerpt: as §1

Another experiment concerns the target Cl− channel. The experiment is described as follows: Radioligand binding selectivity, Cl− channel.
Excerpt: as §1

The target of another experiment is Adrenergic Beta2 (Homo sapiens, UniProt P07550). The experiment is described as follows: Radioligand binding selectivity, Adrenergic Beta2.
Adrenergic Beta2, sequence (P07550 whole entry): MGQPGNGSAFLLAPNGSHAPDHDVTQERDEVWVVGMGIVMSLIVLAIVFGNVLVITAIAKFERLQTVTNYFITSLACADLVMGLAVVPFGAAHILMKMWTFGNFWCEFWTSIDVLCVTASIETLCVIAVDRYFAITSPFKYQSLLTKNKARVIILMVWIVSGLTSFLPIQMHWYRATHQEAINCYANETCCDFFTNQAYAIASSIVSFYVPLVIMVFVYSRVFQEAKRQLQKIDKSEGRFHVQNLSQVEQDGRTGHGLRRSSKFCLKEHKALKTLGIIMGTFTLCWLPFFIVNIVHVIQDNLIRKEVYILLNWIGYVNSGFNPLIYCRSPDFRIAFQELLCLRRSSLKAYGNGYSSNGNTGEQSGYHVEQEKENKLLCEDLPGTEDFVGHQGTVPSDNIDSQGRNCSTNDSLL
Excerpt: as §1

The next experiment deals with 5-HT4 (Homo sapiens, UniProt Q13639). The experiment is described as follows: Radioligand binding selectivity, 5-HT4.
5-HT4, sequence (Q13639 whole entry, species assumed): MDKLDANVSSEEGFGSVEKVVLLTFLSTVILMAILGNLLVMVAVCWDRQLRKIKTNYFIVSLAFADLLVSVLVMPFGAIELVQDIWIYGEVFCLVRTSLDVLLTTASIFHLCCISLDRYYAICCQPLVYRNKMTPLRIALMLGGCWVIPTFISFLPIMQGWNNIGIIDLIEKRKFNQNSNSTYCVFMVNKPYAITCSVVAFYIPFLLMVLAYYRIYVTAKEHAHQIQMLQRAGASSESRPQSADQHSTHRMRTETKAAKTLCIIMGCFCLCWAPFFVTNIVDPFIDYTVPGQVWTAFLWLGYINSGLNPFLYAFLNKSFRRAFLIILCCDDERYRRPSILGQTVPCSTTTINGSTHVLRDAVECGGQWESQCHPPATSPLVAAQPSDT
Excerpt: as §1

The target in a further experiment is Adrenergic Alpha1. The experiment is described as follows: Radioligand binding selectivity, Adrenergic Alpha1.
Excerpt: as §1

In another experiment the target is 5-HT5 (Homo sapiens, UniProt P47898). The experiment is described as follows: Radioligand binding selectivity, 5-HT5.
5-HT5, sequence (P47898 whole entry): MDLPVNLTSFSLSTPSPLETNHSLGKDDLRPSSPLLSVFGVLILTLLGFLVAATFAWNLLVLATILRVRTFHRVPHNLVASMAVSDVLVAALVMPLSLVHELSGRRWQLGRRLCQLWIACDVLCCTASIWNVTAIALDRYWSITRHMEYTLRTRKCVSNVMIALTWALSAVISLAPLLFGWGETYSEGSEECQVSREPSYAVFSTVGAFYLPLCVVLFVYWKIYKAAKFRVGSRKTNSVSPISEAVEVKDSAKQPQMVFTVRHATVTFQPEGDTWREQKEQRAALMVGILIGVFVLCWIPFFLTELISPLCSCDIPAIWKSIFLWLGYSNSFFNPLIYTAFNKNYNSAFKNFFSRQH
Excerpt: as §1

The next experiment deals with 5-HT1E (Homo sapiens, UniProt P28566). The experiment is described as follows: Radioligand binding selectivity, 5-HT1E.
Excerpt: as §1

In a further experiment the target is Histamine H1 (Homo sapiens, UniProt P35367). The experiment is described as follows: Radioligand binding selectivity, Histamine H1.
Histamine H1, sequence (P35367 whole entry): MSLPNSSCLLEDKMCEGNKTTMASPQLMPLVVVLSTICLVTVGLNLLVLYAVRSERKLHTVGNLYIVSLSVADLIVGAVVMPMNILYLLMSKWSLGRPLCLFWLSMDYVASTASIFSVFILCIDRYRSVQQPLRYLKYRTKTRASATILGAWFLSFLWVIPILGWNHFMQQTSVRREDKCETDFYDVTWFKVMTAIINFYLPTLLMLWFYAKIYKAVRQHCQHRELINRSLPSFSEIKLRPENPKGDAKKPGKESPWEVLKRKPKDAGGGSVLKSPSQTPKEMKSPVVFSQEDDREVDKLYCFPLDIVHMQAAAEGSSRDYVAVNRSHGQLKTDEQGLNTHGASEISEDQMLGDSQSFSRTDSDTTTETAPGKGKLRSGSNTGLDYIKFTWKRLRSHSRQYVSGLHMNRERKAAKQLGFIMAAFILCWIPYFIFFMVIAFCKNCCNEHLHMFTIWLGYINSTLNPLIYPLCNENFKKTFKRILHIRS
Excerpt: as §1

The target of the next experiment is Adrenergic Alpha2. The experiment is described as follows: Radioligand binding selectivity, Adrenergic Alpha2.
Excerpt: as §1

The target in a further experiment is 5-HT1B (Homo sapiens, UniProt P28222). The experiment is described as follows: Radioligand binding selectivity, 5-HT1B.
5-HT1B, sequence (P28222 whole entry, species assumed): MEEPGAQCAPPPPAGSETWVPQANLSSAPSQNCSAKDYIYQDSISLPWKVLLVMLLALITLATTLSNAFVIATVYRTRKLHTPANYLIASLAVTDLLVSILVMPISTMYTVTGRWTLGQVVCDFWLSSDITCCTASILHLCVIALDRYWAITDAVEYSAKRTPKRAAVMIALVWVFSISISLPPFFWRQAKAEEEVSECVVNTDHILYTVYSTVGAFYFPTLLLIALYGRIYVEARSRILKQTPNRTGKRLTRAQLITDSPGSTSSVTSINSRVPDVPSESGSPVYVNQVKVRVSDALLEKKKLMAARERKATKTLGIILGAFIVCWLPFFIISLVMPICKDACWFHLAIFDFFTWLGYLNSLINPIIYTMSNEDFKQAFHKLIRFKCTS
Excerpt: as §1

The target in a further experiment is 5-HT1F (Homo sapiens, UniProt P30939). The experiment is described as follows: Radioligand binding selectivity, 5-HT1F.
Excerpt: as §1

Another experiment deals with 5-HT2B (Homo sapiens, UniProt P41595). The experiment is described as follows: Radioligand binding selectivity, 5-HT2B.
Excerpt: as §1

For the next experiment, the target named is 5-HT1A (Homo sapiens, UniProt P08908). The experiment is described as follows: Radioligand binding selectivity, 5-HT1A.
5-HT1A, sequence (P08908 whole entry, species assumed): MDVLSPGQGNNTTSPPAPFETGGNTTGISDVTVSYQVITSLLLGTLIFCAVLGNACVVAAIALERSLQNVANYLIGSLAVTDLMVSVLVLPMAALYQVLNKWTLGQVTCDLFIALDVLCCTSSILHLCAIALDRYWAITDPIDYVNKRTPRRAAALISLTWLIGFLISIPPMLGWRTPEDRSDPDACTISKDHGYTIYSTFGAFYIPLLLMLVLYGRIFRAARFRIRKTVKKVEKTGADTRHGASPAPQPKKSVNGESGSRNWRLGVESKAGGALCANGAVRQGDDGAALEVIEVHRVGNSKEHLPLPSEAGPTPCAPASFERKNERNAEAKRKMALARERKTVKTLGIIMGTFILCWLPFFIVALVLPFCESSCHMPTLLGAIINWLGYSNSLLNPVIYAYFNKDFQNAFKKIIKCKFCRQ
Excerpt: as §1

For experiment [4], the target named is Ca+2 channel (verapamil site). The experiment is described as follows: Radioligand binding selectivity, Ca+2 channel (verapamil site).
Excerpt: as §1

A further experiment deals with Na+ channel. The experiment is described as follows: Radioligand binding selectivity, Na+ channel.
Excerpt: as §1

Another experiment concerns the target Adrenergic Beta1 (Homo sapiens, UniProt P08588). The experiment is described as follows: Radioligand binding selectivity, Adrenergic Beta1.
Excerpt: as §1

Experiment [5] concerns 129S6 wild type and nociceptin/ORL1 receptor knockout mice. The experiment is described as follows: mFST in wild type and ORL-1 knockout mice. Type of experiment: in vivo. An excerpt: mFST is an established in vivo assay for antidepressant activity (Li et al. J Pharmacol Exp Ther. 319(1):254-9, 2006.). […] The mFST was used to evaluate potential antidepressant-like activity of novel nociceptin/ORL1 antagonists according to previously published methods (Li et al. J Pharmacol Exp Ther. 319(1):254-9, 2006.). Briefly, male NIH-Swiss mice (Harlan Sprague-Dawley, Indianapolis, Ind.) weighing between 25-30 g are used. Group housed animals are removed from the vivarium to the testing area in their own cages and allowed to adapt to the new environment for at least 1 hour before testing. Alternatively, male 129S6 wild type and nociceptin/ORL1 receptor knockout mice were used to confirm dependence of the response to compound was nociceptin/ORL1 receptor dependent. All compounds are prepared in 20% Captisol, 25 mM phosphate buffer, pH 2.0 on the day of use. Mice are placed in a cylinder (diameter: 10 cm; height: 25 cm) filled with 6 cm of water (22-25° C.) for 6 min. The duration of immobility during the last 4 min. of the 6 min. period of the test was scored. A mouse is recorded as immobile when floating motionless or making only those movements necessary to keep its head above water.
Yet further, these effects of reduced immobilization times are not observed when ORL-1 knockout mice, a strain of mice engineered to lack the ORL-1 receptor, are used, showing that the effect is indeed mediated by the ORL-1 receptor.

Structures are written as SMILES. Like-named read-outs stand apart in the source and are kept apart here.

As usually defined, the Ki is the dissociation constant of the complex between target and ligand, obtained from inhibition or displacement.

Adrenergic Beta1, sequence (P08588 whole entry): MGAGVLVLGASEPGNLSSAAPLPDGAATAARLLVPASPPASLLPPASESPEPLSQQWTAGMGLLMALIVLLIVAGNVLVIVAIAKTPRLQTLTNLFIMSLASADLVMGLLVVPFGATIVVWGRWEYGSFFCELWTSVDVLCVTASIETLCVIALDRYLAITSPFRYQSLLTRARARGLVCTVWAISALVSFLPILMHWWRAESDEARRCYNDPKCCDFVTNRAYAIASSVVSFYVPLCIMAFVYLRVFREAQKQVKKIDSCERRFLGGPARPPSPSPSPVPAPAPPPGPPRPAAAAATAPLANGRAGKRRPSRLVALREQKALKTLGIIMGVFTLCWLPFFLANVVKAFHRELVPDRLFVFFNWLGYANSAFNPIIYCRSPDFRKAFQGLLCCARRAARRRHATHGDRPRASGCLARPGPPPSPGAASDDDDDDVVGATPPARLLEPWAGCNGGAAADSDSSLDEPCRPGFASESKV
Norepinephrine transporter, sequence (P23975 whole entry, species assumed): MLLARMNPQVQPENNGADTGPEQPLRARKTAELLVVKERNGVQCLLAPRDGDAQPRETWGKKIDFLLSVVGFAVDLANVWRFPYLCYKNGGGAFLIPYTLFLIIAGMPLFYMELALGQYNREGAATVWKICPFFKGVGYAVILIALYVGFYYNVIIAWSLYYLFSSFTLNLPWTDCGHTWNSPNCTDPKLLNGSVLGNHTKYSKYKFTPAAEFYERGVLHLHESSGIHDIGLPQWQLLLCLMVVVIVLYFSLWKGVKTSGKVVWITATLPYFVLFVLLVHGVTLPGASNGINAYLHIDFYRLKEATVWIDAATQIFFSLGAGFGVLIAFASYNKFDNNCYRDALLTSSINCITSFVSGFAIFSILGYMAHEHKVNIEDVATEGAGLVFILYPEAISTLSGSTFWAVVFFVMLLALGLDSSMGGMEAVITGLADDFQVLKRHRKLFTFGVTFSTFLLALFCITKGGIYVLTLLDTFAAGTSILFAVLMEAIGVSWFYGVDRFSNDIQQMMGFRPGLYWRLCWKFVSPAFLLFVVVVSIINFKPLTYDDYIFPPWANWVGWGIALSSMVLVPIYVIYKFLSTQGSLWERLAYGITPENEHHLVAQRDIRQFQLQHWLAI
T1 sequence (P41146 whole entry): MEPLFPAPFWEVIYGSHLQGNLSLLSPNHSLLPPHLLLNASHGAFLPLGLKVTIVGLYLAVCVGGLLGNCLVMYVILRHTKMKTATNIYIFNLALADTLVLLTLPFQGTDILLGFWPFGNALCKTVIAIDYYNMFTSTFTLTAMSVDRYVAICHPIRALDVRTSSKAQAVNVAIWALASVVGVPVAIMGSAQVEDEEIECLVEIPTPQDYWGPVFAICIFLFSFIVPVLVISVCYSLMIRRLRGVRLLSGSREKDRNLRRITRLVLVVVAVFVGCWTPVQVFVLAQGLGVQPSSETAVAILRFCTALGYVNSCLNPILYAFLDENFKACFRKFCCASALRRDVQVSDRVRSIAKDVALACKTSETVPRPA

For `Cc1nn(-c2ncccc2Cn2cccn2)cc1CN1CCC2(CC1)OCC(F)(F)c1cc(Cl)sc12.O=C(O)C(O)C(O)C(=O)O` [Example 23, 2-Chloro-4,4-difluoro-1′-[[3-methyl-1-[3-(pyrazol-1-ylmethyl)-2-pyridyl]pyrazol-4-yl]methyl]spiro[5H-thieno[2,3-c]pyran-7,4′-piperidine] (L)-Tartrate], the Kb in experiment [1] was determined as 0.00152 µM.

`O=C(O)C(O)C(O)C(=O)O.OCc1nn(-c2ncccc2F)cc1CN1CCC2(CC1)OCC(F)(F)c1cc(Cl)sc12` [Example 53, [4-[(2-Chloro-4,4-difluoro-spiro[5H-thieno[2,3-c]pyran-7,4′-piperidine]-1′-yl)methyl]-1-(3-fluoro-2-pyridyl)pyrazol-3-yl]methanol (L)-Tartrate]: the Ki in experiment [2] is over 0.5 µM; in experiment [3], over 0.5 µM; on Muscarinic M2 it was over 5 µM; on 5-HT2C, over 5.65 µM; on Cl− channel, over 0.5 µM; on Adrenergic Beta2, over 5 µM. For the same compound, the Ki on 5-HT4 was over 4.12 µM; on Adrenergic Alpha1 it was over 5 µM; on 5-HT5 it was over 9.09 µM; at 5-HT1E, over 5.37 µM; on Histamine H1 it was over 5 µM; at Adrenergic Alpha2, over 5 µM. Further, the inhibition constant Ki is over 3.58 µM at 5-HT1B; over 8.52 µM at 5-HT1F; 0.22 µM at 5-HT2B; over 3.18 µM on 5-HT1A; over 5 µM in experiment [4]; over 0.5 µM on Na+ channel. Also, on Adrenergic Beta1, the inhibition constant (Ki) is over 5 µM. The Kb in experiment [1] came to 0.00062 µM.

Take `Cc1nn(-c2ncccc2CO)cc1CN1CCC2(CC1)OCC(F)(F)c1cc(Cl)sc12` [Example 62, [2-[4-[(2-Chloro-4,4-difluoro-spiro[5H-thieno[2,3-c]pyran-7,4′-piperidine]-1′-yl)methyl]-3-methyl-pyrazol-1-yl]-3-pyridyl]methanol]: the Ki in experiment [2] is over 0.5 µM; in experiment [3] (read-out: Ki Norepinephrine transporter), over 0.5 µM; at Muscarinic M2 (read-out: Ki Muscarinic M2) it was over 0.5 µM; at 5-HT2C (read-out: Ki 5-HT2C), over 5.65 µM; on Cl− channel, over 0.5 µM; at Adrenergic Beta2, over 5 µM. Further, the Ki at 5-HT4 (read-out: Ki 5-HT4) is over 4.12 µM; on Adrenergic Alpha1, over 5 µM; at 5-HT5 (read-out: Ki 5-HT5) it was over 9.09 µM; at 5-HT1E (read-out: Ki 5-HT1E) it was over 5.37 µM; at Histamine H1 it was over 5 µM; at Adrenergic Alpha2, over 5 µM. Besides, the inhibition constant (Ki) on 5-HT1B (read-out: Ki 5-HT1B) is over 3.58 µM; at 5-HT1F (read-out: Ki 5-HT1F), over 8.52 µM; at 5-HT2B (read-out: Ki 5-HT2B), 0.693 µM; on 5-HT1A (read-out: Ki 5-HT1A), over 3.18 µM; in experiment [4], over 0.5 µM; on Na+ channel it was 0.235 µM. At Adrenergic Beta1, the Ki was over 5 µM. The “effect on immobilization time” value in [5] (ORL-1 knockout mice) is on record as “no effect”; in [5] (wild type mice), “significantly reduce the immobilization time”.

Source of the values: patent US8232289B2, “Spiropiperidine compounds as ORL-1 receptor antagonists” (Eli Lilly and Company, priority 2009, dated 2012).
